Source: article PMC12764611 (Nature Communications, 2025)

Target: T1, IGFBP7 (endogenous, HK-2 cells, CETSA) (Homo sapiens, UniProt Q16270)
T1 sequence (Q16270 27-282): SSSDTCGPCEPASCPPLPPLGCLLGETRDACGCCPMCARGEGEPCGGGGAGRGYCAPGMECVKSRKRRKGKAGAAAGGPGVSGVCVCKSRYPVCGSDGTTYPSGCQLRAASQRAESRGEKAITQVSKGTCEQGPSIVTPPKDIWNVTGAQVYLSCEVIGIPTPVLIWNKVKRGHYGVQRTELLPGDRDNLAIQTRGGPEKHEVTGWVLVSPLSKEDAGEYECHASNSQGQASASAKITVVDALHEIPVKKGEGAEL
Test: cellular thermal shift assay, immunoblot
Format: cell-based
Settings: HK-2 cells with or without LA pretreatment, then lysed and heated

CN1c2c(nc(N)[nH]c2=O)NC[C@@H]1CNc1ccc(C(=O)N[C@@H](CCC(=O)O)C(=O)O)cc1 [levomefolic acid]
cellular thermal shift assay, immunoblot: analysis showing the stabilisation of IGFBP7 in vitro, with or without LA treatment
